Patent US20240190828A1, “Small Molecule Inhibitors of PBRM1-BD2” (The Medical College of Wisconsin, Inc., priority 2021, published 2024)

Experiments:
BRD7 = BRD7 (Homo sapiens (Human), UniProt Q9NPI1); test: DSF selectivity profiling; format: binding
Experimental: (§1) Differential Scanning Fluorimetry (DSF). Bromodomain DSF Tm assays were performed using an Mx3005P (Stratagene) PCR detection system and low profile 96-well PCR plates (UltraFlux, Flat Top, SSI 3400-00S). […] The temperature was raised by 1° C./min from 25-95° C., and fluorescence readings were taken at each interval. Melting curves were analyzed using our online interactive fitting tool for thermofluor experiments (https://dsf-analysis.herokuapp.com/DSF-analysis) and plotted using GraphPad Prism.

BRD3-BD1 = BRD3-BD1 (Homo sapiens (Human), UniProt Q15059); test: DSF selectivity profiling; format: binding
Sequence of BRD3-BD1 (Q15059 34-140): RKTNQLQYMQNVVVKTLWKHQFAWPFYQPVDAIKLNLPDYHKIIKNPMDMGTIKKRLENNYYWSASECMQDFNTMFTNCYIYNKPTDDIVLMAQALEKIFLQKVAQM
Experimental: as §1

ASH1L = ASH1L (Homo sapiens (Human), UniProt Q9NR48); test: DSF selectivity profiling; format: binding
Experimental: as §1

p300 = p300 (Homo sapiens (Human), UniProt Q09472); test: DSF selectivity profiling; format: binding
Sequence of p300 (Q09472 1049-1156): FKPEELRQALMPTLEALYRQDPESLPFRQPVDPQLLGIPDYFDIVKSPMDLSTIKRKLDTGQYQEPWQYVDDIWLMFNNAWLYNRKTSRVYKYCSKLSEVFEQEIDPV
Experimental: as §1

BRD2-BD2 = BRD2-BD2 (Homo sapiens (Human), UniProt P25440); test: DSF selectivity profiling; format: binding
Sequence of BRD2-BD2 (P25440 344-453): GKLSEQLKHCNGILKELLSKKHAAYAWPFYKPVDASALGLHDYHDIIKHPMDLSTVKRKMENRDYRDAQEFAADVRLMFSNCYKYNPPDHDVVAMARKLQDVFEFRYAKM
Experimental: as §1

TRIM33A = TRIM33A (Homo sapiens (Human), UniProt Q9UPN9); test: DSF selectivity profiling; format: binding
Sequence of TRIM33A (Q9UPN9 957-1080): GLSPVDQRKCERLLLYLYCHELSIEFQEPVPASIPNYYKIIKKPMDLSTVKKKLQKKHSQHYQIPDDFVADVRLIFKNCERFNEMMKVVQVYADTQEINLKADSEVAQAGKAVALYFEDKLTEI
Experimental: as §1

CECR2 = CECR2 (Homo sapiens (Human), UniProt Q9BXF3); test: DSF selectivity profiling; format: binding
Sequence of CECR2 (Q9BXF3 434-538): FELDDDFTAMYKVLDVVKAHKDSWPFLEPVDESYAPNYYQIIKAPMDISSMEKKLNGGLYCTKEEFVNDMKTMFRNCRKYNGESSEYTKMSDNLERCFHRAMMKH
Experimental: as §1

PCAF = PCAF (Homo sapiens (Human), UniProt Q92831); test: DSF selectivity profiling; format: binding
Sequence of PCAF (Q92831 723-827): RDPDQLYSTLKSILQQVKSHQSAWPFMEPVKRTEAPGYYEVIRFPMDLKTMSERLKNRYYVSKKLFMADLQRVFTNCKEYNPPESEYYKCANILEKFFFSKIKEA
Experimental: as §1

BRD3-BD2 = BRD3-BD2 (Homo sapiens (Human), UniProt Q15059); test: DSF selectivity profiling; format: binding
Sequence of BRD3-BD2 (Q15059 306-415): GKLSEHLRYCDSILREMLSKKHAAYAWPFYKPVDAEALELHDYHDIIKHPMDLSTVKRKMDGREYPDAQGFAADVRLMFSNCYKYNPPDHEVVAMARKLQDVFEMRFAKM
Experimental: as §1

BRD4-BD2 = BRD4-BD2 (Homo sapiens (Human), UniProt O60885); test: DSF selectivity profiling; format: binding
Experimental: as §1

BRDT-BD1 = BRDT-BD1 (Homo sapiens (Human), UniProt Q58F21); test: DSF selectivity profiling; format: binding
Experimental: as §1

BRD4-BD1 = BRD4-BD1 (Homo sapiens (Human), UniProt O60885); test: DSF selectivity profiling; format: binding
Experimental: as §1

CREBBP = CREBBP (Homo sapiens (Human), UniProt Q92793); test: DSF selectivity profiling; format: binding
Sequence of CREBBP (Q92793 1085-1192): as the sequence (Q09472 1049-1156) above, with S47N, I73V, Y93F, S98A counted along it
Experimental: as §1

SMARCA4 [1] = target: T1, SMARCA4 (Homo sapiens (Human), UniProt P51532); test: DSF selectivity profiling; format: binding
T1 sequence (P51532 1453-1564): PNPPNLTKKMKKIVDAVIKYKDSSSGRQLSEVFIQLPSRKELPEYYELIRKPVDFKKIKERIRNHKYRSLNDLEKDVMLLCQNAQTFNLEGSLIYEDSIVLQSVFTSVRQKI
Experimental: as §1

SMARCA2 [2] = target: T2, SMARCA2 (Homo sapiens (Human), UniProt P51531); test: Isothermal titration calorimetry (ITC); format: binding; conditions: NB = did not bind
T2 sequence (P51531 1378-1506): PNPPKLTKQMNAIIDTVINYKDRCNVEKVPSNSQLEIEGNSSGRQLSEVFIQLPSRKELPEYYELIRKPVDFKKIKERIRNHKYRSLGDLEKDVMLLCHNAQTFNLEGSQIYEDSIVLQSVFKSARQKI
Experimental: (§3) Binding affinities of inhibitors towards PBRM1-BD2, PBRM1-BD5, SMARCA2, SMARCA4, and ASH1L were determined using a VP-ITC instrument (MicroCal). […] Protein concentrations were determined via the method of Bradford.^1 The buffer used for all ITC experiments consisted of 50 mM HEPES (pH 7.5 at 20° C.), 500 mM NaCl, 5% v/v glycerol, and 1% v/v DMSO; except for experiments involving PBRM1-BD2 whose buffer consisted of 100 mM Na2PO4 (pH 7.5 at 20° C.), 100 mM NaCl, 5% v/v glycerol, and 1% v/v DMSO. Kd values were determined by least-squares fitting to the raw data using Origin (OriginLab).

[3] = system: other tested bromodomains; test: DSF selectivity panel of 22 bromodomains; format: binding, human; conditions: bromodomains other than PBRM1-BD2, -BD3, -BD5
Experimental: as §1

SMARCA4 [4] = target: T1, SMARCA4; test: Isothermal titration calorimetry (ITC); format: binding; conditions: NB = did not bind
Experimental: as §3

SMARCA2 [5] = target: T2, SMARCA2; test: DSF selectivity profiling; format: binding
Experimental: as §1

PC3 cells = test: Cell viability assay (CellTiter-Glo); format: cell-based, human; conditions: 10, 1 and 0.1 μM
Experimental: (§2) Cell Viability Assays. Cells were seeded in a 96-well plate and incubated for 12-24 h prior to initial treatment. The number of cells per well was chosen empirically based on cell growth rates (LNCaP-5,000 cells/well, PC3 and RWPE-1-3,000 cells per well, HEK293T-1,000 cells/well). Cells were treated with either DMSO control or serial dilutions of inhibitors and media with compound was refreshed every 48 h.

HEK293T cells = test: Cell viability assay (CellTiter-Glo); format: cell-based, human; conditions: dose curve
Experimental: as §2

RWPE-1 cells = test: Cell viability assay (CellTiter-Glo); format: cell-based, human; conditions: 10, 1 and 0.1 μM
Experimental: as §2

Sequence of BRD7 (Q9NPI1 131-235): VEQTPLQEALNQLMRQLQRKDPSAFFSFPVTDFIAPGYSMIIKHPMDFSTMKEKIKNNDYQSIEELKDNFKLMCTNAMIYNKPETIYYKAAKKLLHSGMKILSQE

Cc1ccccc1C1NC(=O)c2c(Cl)cccc2N1 (stereo not shown) [Compound 15, 5-Chloro-2-(2-methylphenyl)-2,3-dihydroquinazolin-4(1H)-one]
BRD7 ΔTm (BRD7): 0.2 °C | BRD3-BD1 ΔTm (BRD3-BD1): 0.3 °C | ASH1L ΔTm (ASH1L): −0.6 °C | p300 ΔTm (p300): 0.2 °C | BRD2-BD2 ΔTm (BRD2-BD2): 0.6 °C | TRIM33A ΔTm (TRIM33A): 0.8 °C | CECR2 ΔTm (CECR2): −0.5 °C | PCAF ΔTm (PCAF): 0.5 °C | BRD3-BD2 ΔTm (BRD3-BD2): 0.4 °C | BRD4-BD2 ΔTm (BRD4-BD2): −3.3 °C | BRDT-BD1 ΔTm (BRDT-BD1): −0.7 °C | BRD4-BD1 ΔTm (BRD4-BD1): 0.1 °C | CREBBP ΔTm (CREBBP): 0.5 °C | SMARCA4 ΔTm (SMARCA4 [1]): did not exhibit detectable thermal stabilization or binding affinity | Kd SMARCA2 (SMARCA2 [2]): did not exhibit detectable thermal stabilization or binding affinity | thermal stabilization against other tested bromodomains [3]: < 1 °C | Kd SMARCA4 (SMARCA4 [4]): did not exhibit detectable thermal stabilization or binding affinity

Cc1cccc(C2NC(=O)c3c(Cl)cccc3N2)c1C (stereo not shown) [Compound 25, 5-Chloro-2-(2,3-dimethylphenyl)-2,3-dihydroquinazolin-4(1H)-one]
BRD7 ΔTm (BRD7): 0.0 °C | SMARCA2 ΔTm (SMARCA2 [5]): 0.0 °C | BRD3-BD1 ΔTm (BRD3-BD1): 0.4 °C | ASH1L ΔTm (ASH1L): −0.8 °C | p300 ΔTm (p300): 0.6 °C | BRD2-BD2 ΔTm (BRD2-BD2): 0.2 °C | TRIM33A ΔTm (TRIM33A): 0.3 °C | CECR2 ΔTm (CECR2): 0.8 °C | PCAF ΔTm (PCAF): 0.1 °C | BRD3-BD2 ΔTm (BRD3-BD2): 0.4 °C | BRD4-BD2 ΔTm (BRD4-BD2): −4.2 °C | BRDT-BD1 ΔTm (BRDT-BD1): 0.1 °C | BRD4-BD1 ΔTm (BRD4-BD1): 0.6 °C | CREBBP ΔTm (CREBBP): 0.6 °C | growth inhibition of PC3 cells (PC3 cells): also inhibits the PC3, RWPE1, and HEK293T cells similarly | growth inhibition of HEK293T cells (HEK293T cells): also inhibits the PC3, RWPE1, and HEK293T cells similarly | growth inhibition of RWPE1 cells (RWPE-1 cells): also inhibits the PC3, RWPE1, and HEK293T cells similarly
